Kb and IC50 data for three compounds are collected here from US20120270915A1, “FATTY ACID AMIDE HYDROLASE INHIHIBITORS FOR TREATING PAIN” (priority 2011, published 2012).

Like-named read-outs stand apart in the source and are kept apart here.

One assay deals with FP receptor (Homo sapiens, UniProt P43088). The assay is described as follows: Prostanoid receptor antagonism (FLIPR), FP. The class given is cell-based.
For another assay, the target named is EP4 receptor (Homo sapiens, UniProt P35408). The assay is described as follows: Prostanoid receptor antagonism (FLIPR), EP4. The class given is cell-based.
The target of another assay is T1, FAAH Rat brain (Rattus norvegicus, UniProt P97612).
T1 construct: from tissue; host or cells: rat brain membranes
T1 sequence (P97612 1-579): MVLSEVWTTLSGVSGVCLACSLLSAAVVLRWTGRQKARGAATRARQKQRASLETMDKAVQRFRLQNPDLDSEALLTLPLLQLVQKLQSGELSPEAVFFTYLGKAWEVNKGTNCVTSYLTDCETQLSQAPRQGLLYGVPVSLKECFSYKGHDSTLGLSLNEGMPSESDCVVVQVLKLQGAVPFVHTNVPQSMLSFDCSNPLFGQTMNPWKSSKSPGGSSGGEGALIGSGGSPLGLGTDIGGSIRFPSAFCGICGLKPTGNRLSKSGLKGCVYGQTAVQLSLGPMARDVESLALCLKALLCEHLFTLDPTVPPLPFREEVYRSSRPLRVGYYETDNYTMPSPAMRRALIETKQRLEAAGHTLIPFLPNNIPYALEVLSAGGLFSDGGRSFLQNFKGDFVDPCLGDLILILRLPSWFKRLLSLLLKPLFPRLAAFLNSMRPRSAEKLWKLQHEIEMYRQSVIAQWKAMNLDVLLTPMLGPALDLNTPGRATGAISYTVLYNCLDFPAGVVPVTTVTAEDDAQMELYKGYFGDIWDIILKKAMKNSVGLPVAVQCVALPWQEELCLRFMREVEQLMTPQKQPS
Nature of the assay: FAAH inhibitory activity, rat brain membranes, [14C]-AEA hydrolysis. The class given is biochemical. The following applies: rat brain, read-out: FAAH Rat brain IC50. Here is the method: The compounds of Examples 12, and 19 are tested for FAAH inhibitory activity as follows:
Method 1: Membranes obtained from rat brain are incubated with 2 mM [^14C]-AEA, 30 min at 37° C. at pH values ranging from 9.00 to 10.00 in presence and absence of tested compounds in a final volume of […]. Incubation is stopped by extraction with CHCl3/MeOH (1:1) and the aqueous phases containing [^14C]-Ethanolamine produced by [^14C]-AEA hydrolysis are measured.

For a further assay, the target named is T2, EP3 receptor (Homo sapiens, UniProt P43115).
T2 sequence (P43115 1-390): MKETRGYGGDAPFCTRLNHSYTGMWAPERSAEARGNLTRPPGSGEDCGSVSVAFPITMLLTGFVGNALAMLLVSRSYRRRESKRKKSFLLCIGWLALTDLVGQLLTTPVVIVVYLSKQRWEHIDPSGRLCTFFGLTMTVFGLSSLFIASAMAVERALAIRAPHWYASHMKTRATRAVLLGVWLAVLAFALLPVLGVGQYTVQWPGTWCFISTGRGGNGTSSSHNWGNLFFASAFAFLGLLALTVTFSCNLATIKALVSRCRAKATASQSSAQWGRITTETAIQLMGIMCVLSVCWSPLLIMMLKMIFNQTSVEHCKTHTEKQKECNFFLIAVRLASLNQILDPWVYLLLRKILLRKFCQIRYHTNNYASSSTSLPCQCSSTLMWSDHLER
The assay is described as follows: Prostanoid receptor antagonism (FLIPR), EP3. The assay is classed as cell-based.

The next assay addresses T3, DP receptor (Homo sapiens, UniProt Q13258).
T3 sequence (Q13258 1-359): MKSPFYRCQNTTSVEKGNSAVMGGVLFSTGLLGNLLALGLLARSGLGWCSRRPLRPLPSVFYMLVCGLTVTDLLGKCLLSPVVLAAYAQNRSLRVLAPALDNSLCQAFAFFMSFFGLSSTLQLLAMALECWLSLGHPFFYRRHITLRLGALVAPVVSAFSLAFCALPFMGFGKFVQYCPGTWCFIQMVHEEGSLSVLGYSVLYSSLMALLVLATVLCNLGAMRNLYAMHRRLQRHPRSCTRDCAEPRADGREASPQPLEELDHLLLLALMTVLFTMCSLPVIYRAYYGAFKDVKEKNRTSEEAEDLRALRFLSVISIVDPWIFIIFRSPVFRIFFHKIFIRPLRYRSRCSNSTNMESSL
Nature of the assay: Prostanoid receptor antagonism (FLIPR), DP. The assay is classed as cell-based.

The target in a further assay is T4, TP receptor (Homo sapiens, UniProt P21731).
T4 sequence (P21731 1-343): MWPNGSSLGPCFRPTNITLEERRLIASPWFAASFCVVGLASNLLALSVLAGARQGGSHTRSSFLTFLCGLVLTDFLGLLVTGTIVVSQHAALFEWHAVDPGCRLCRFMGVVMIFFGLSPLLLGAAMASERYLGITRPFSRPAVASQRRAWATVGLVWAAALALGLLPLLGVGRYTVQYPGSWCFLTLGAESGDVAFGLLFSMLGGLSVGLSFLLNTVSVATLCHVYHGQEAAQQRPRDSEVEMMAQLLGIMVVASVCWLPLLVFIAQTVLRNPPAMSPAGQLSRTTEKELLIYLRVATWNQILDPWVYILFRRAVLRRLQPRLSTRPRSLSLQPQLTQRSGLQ
Nature of the assay: Prostanoid receptor antagonism (FLIPR), TP. The class given is cell-based.

Another assay has as its target EP2 receptor (Homo sapiens, UniProt P43116). The assay is described as follows: Prostanoid receptor antagonism (FLIPR), EP2. The assay is classed as cell-based.
A further assay has as its target IP receptor (Homo sapiens, UniProt P43119). Nature of the assay: Prostanoid receptor antagonism (FLIPR), IP. The class given is cell-based.
In a further assay the target is T5, EP1 receptor (Homo sapiens, UniProt P34995).
T5 sequence (P34995 1-402): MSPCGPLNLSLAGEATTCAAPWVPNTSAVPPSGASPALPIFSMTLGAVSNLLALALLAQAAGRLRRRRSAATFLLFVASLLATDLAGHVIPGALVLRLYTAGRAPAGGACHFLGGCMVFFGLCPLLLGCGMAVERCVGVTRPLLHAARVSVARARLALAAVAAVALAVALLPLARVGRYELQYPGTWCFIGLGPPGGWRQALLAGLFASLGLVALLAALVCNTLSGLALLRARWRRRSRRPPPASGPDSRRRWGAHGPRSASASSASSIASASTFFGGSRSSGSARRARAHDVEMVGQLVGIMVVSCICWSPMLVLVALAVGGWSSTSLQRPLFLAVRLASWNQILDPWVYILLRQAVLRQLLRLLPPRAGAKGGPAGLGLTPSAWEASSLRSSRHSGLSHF
Nature of the assay: Prostanoid receptor antagonism (FLIPR), EP1. The class given is cell-based.

Sequence of EP4 receptor (P35408 whole entry): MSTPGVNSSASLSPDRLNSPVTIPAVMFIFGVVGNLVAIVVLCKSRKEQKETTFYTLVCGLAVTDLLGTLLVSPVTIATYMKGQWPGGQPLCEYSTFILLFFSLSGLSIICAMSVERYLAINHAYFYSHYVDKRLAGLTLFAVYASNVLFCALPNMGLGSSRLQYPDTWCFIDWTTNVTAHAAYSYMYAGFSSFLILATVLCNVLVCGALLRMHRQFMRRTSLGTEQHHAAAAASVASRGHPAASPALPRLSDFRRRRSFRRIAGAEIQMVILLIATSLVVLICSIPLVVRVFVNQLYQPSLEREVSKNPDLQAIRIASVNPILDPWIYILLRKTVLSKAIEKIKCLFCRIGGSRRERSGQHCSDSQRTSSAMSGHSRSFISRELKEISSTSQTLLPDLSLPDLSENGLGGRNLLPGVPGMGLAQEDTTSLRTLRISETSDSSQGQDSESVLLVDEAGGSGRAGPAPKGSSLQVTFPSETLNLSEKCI
Sequence of EP2 receptor (P43116 whole entry): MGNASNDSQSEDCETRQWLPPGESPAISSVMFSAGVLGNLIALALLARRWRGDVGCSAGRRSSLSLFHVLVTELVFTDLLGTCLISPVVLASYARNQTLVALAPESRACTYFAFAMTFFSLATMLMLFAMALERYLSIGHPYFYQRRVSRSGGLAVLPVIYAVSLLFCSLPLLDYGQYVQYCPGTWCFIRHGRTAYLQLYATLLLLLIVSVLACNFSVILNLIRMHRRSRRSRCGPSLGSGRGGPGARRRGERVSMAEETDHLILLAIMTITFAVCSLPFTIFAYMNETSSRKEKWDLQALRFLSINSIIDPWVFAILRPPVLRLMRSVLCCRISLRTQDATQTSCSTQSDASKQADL
Sequence of IP receptor (P43119 whole entry): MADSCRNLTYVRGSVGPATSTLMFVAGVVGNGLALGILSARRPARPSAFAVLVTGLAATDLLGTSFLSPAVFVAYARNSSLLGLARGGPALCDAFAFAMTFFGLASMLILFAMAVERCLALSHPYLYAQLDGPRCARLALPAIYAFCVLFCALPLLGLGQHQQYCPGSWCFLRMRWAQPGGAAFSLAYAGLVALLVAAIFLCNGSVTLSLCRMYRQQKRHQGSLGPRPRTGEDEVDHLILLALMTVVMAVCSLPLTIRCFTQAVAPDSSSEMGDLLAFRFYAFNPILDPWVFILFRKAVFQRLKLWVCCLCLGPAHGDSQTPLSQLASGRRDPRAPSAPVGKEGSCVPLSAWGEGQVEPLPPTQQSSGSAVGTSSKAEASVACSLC
Sequence of FP receptor (P43088 whole entry): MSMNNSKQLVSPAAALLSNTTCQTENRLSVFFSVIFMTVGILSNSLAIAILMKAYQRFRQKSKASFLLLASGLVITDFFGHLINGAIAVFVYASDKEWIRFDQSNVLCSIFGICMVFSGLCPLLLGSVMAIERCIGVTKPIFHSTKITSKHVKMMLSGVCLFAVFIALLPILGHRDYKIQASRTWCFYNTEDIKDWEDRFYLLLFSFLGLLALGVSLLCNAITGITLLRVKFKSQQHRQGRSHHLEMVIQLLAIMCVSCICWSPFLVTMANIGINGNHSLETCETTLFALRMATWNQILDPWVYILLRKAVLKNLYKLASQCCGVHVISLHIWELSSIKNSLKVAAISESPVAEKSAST

A word on the Kb: it is the equilibrium dissociation constant of an antagonist, usually derived from a functional assay. A word on the IC50: it is the concentration at which inhibition is half-maximal. Regarding `CCCCCCCCNC(=O)c1coc([C@@H]2CCCN2Cc2cc(OC)ccc2CCC(=O)NS(=O)(=O)C(F)(F)F)n1` [Example 12f, 2-{1-(5-methoxy-2-(3-oxo-3-{[(trifluoromethyl)sulfonyl]amino]propyl)benzyl]pyrrolidin-2-yl}-N-octyl-1,3-oxazole-4-carboxamide], the Kb is 380 nM on FP receptor (Table 1); 20 nM at EP4 receptor (Table 1); 140 nM at EP3 receptor (Table 1); less than 1 nM at DP receptor (Table 1); less than 1 nM at TP receptor (Table 1); 1100 nM on EP2 receptor (Table 1). The Kb on IP receptor (Table 1) came out at 400 nM; at EP1 receptor (Table 1), 60 nM. Moreover, on FAAH Rat brain (Table 1), the IC50 was 500 nM.

Consider `COc1ccc(CCC(=O)NS(=O)(=O)N(C)C)c(CN2CCC[C@H]2c2nc(C(=O)NCCCCC3CCCCC3)co2)c1` [Example 12k], for which the Kb at FP receptor (Table 2) was 1400 nM; at EP4 receptor (Table 2) it was 400 nM; on EP3 receptor (Table 2), 5600 nM; at DP receptor (Table 2) it was 80 nM; at TP receptor (Table 2), 13 nM; on EP2 receptor (Table 2, NA = inactive) it was 4000 nM. The Kb on IP receptor (Table 2, NA = inactive) was 2900 nM; at EP1 receptor (Table 2), 3100 nM. In addition, the IC50 at FAAH Rat brain (Table 2) is 200 nM.

For `CCS(=O)(=O)NC(=O)CCc1ccc(OC)cc1CN1CCC[C@H]1c1nc(C(=O)NCCCCC2CCCCC2)co1` [Example 12l, (S)—N-(4-cyclohexylbutyl)-2-(1-(5-methoxy-2-(3-oxo-3-(ethylsulfonamido)propyl)benzyl)pyrrolidin-2-yl)oxazole-4-carboxamide], the Kb worked out at 1600 nM at FP receptor (Table 2); 160 nM on EP4 receptor (Table 2); 910 nM on EP3 receptor (Table 2); 40 nM on DP receptor (Table 2); 11 nM on TP receptor (Table 2); 1800 nM on EP2 receptor (Table 2, NA = inactive). The Kb at IP receptor (Table 2, NA = inactive) came out at 6900 nM; on EP1 receptor (Table 2), 180 nM. Besides, the IC50 on FAAH Rat brain (Table 2) is 240 nM.
